Laboratory results reported in ChEMBL document CHEMBL1201862, “PubChem BioAssay data set” (2004).
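Compound exposure: 48 hours, 5 concentrations, 96-well plates. GI50 marks 50% less growth.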 The source made the active and inactive calls. Rule as the data show it: active = GI50 up to about 1.1 µM and inactive = higher.

What was measured:
Experiment in all cases: NCI anticancer screen, dose series, 48 h
SN12C = tested on: SN12C
EKVX = tested on: EKVX
OVCAR-8 = tested on: OVCAR-8
SR = tested on: SR
DLD-1 = tested on: DLD-1
HL-60 = tested on: HL-60
SNB-75 = tested on: SNB-75
OVCAR-3 = tested on: OVCAR-3
HCC 2998 = tested on: HCC 2998
M19-MEL = tested on: M19-MEL
DMS-114 = tested on: DMS-114
A549 = tested on: A549
BT-549 = tested on: BT-549
CCRF-CEM = tested on: CCRF-CEM
IGROV-1 = tested on: IGROV-1
PC-3 = tested on: PC-3
SK-MEL-28 = tested on: SK-MEL-28
NCI/ADR-RES = tested on: NCI/ADR-RES
K562 = tested on: K562

SMILES | GI50 (SN12C) | GI50 (EKVX) | GI50 (OVCAR-8) | GI50 (SR) | GI50 (DLD-1) | GI50 (HL-60) | GI50 (SNB-75) | GI50 (OVCAR-3) | GI50 (HCC 2998) | GI50 (M19-MEL) | GI50 (DMS-114) | GI50 (A549) | GI50 (BT-549) | GI50 (CCRF-CEM) | GI50 (IGROV-1) | GI50 (PC-3) | GI50 (SK-MEL-28) | GI50 (NCI/ADR-RES) | GI50 (K562)
CN(/C(=N\O)c1ccccc1)c1ccccc1 | 32.1 µM (inactive) | 23.3 µM (inactive) | 24.8 µM (inactive) | 25 µM (inactive) | 29.4 µM (inactive) | 19.7 µM (inactive) | 13.5 µM (inactive) | 21.7 µM (inactive) | 25.9 µM (inactive) | 78.2 µM (inactive) | 25.6 µM (inactive) | 47 µM (inactive) | – | – | – | – | – | – | –
COC1(OC)CC(CO)(CNc2nc(N)nc(Cl)c2/C=N\O)C1 | 87.7 µM (inactive) | 22.7 µM (inactive) | 54.7 µM (inactive) | 13.4 µM (inactive) | – | 39.3 µM (inactive) | 48.8 µM (inactive) | 21.7 µM (inactive) | > 100 µM (inactive) | – | – | 59.7 µM (inactive) | 25.3 µM (inactive) | 47.1 µM (inactive) | 21.3 µM (inactive) | 55.5 µM (inactive) | 48.9 µM (inactive) | 46 µM (inactive) | 17.7 µM (inactive)
Cc1c(C(=O)c2ccc(N)c3ccccc23)c2ccccc2n1CCN1CCOCC1 | 33.8 µM (inactive) | 29.1 µM (inactive) | 31.2 µM (inactive) | > 32.8 µM (inactive) | – | 22.3 µM (inactive) | 2.62 µM (inactive) | 15.7 µM (inactive) | 21.1 µM (inactive) | – | – | 13.1 µM (inactive) | 27.4 µM (inactive) | 2.9 µM (inactive) | 27.1 µM (inactive) | 27.5 µM (inactive) | 43.5 µM (inactive) | 23.4 µM (inactive) | 25.5 µM (inactive)
CCOC(=O)C1C(=O)CC(C)(O)C(C(=O)OCC)C1c1ccc(N(C)C)cc1 (stereo unspecified) | > 100 µM (inactive) | > 100 µM (inactive) | > 100 µM (inactive) | > 100 µM (inactive) | – | > 100 µM (inactive) | > 100 µM (inactive) | > 100 µM (inactive) | > 100 µM (inactive) | – | – | > 100 µM (inactive) | > 100 µM (inactive) | > 100 µM (inactive) | > 100 µM (inactive) | > 100 µM (inactive) | > 100 µM (inactive) | > 100 µM (inactive) | > 100 µM (inactive)
CCOC(=O)NC(=O)c1cn(C2OC(CO)C(O)C2O)c(=O)[nH]c1=O (stereo unspecified) | > 100 µM (inactive) | > 100 µM (inactive) | > 100 µM (inactive) | > 100 µM (inactive) | > 100 µM (inactive) | > 100 µM (inactive) | > 100 µM (inactive) | > 100 µM (inactive) | > 100 µM (inactive) | > 100 µM (inactive) | > 100 µM (inactive) | > 100 µM (inactive) | – | – | > 100 µM (inactive) | – | > 100 µM (inactive) | – | > 100 µM (inactive)
O=C(Nc1nc(C23CC4CC(CC(C4)C2)C3)cs1)c1c(O)c2ccccc2[nH]c1=O | > 100 µM (inactive) | > 100 µM (inactive) | > 100 µM (inactive) | > 100 µM (inactive) | – | > 100 µM (inactive) | > 10 µM (inactive) | > 100 µM (inactive) | > 100 µM (inactive) | – | – | > 100 µM (inactive) | > 100 µM (inactive) | > 100 µM (inactive) | > 100 µM (inactive) | > 100 µM (inactive) | > 100 µM (inactive) | > 100 µM (inactive) | > 100 µM (inactive)
Cc1cc(C)c2c(O)cc(-c3cccc(Cl)c3)nc2n1 | 0.187 µM (active) | > 25 µM (inactive) | 0.4 µM (active) | 0.0855 µM (active) | – | 0.0316 µM (active) | 0.166 µM (active) | 0.106 µM (active) | 0.403 µM (active) | – | – | 0.227 µM (active) | 1.59 µM (inactive) | 0.229 µM (active) | 0.2 µM (active) | 0.0282 µM (active) | 5.09 µM (inactive) | 0.254 µM (active) | < 0.0199 µM (active)
C/C(CC(=O)Nc1ccc(C)c(C)c1)=N\NC(N)=S | – | > 100 µM (inactive) | > 100 µM (inactive) | – | > 100 µM (inactive) | > 100 µM (inactive) | > 100 µM (inactive) | > 100 µM (inactive) | > 100 µM (inactive) | – | > 100 µM (inactive) | > 100 µM (inactive) | – | > 100 µM (inactive) | > 100 µM (inactive) | – | > 100 µM (inactive) | – | > 100 µM (inactive)
CC[C@@]1(C)CCC2c3ccc(O)cc3CC[C@H]2C1C (stereo partly specified) | 18.1 µM (inactive) | 18.2 µM (inactive) | 17.7 µM (inactive) | 14.3 µM (inactive) | – | 10.8 µM (inactive) | 19.9 µM (inactive) | 20.6 µM (inactive) | 13.7 µM (inactive) | – | – | 17.9 µM (inactive) | 19 µM (inactive) | 16.5 µM (inactive) | 20.8 µM (inactive) | 19.8 µM (inactive) | 17.8 µM (inactive) | 18.8 µM (inactive) | 8.75 µM (inactive)
